Source: article PMC314469, “Protein Interaction Networks by Proteome Peptide Scanning” (PLoS Biology, 2004)

System: Myo5 SH3 domain
Test: SPOT analysis of cellulose-bound peptides (WISE), Myo5 SH3 domain (Dataset S4)
Type: binding, Saccharomyces cerevisiae
Conditions: for The normalized value in BLU units: Myo5 SH3 domain
[1] = SPOT analysis of cellulose-bound peptides probed with Myo5 SH3 domain, normalized value
[2] = SPOT analysis of cellulose-bound 14-mer yeast proteome peptides, normalized value, mean where the peptide was synthesized more than once
[3] = SPOT analysis of membrane-bound peptides, normalized value (see methods)
[4] = SPOT analysis of membrane-synthesized peptides probed with Myo5 SH3 domain, normalized value

## VPDQLLTPLQPYTI
[1]
  The normalized value in BLU units (SPOT analysis, Myo5 SH3): 168.3 BLU

## VPDSYKPPKNPIVF
[2]
  The normalized value in BLU units: 829.4 BLU

## VPGEHFAPMGPNGQ
[2]
  The normalized value in BLU units: 64.7 BLU

## VPGGMSIPGAPQGA
[1]
  The normalized value in BLU units (SPOT analysis, Myo5 SH3): 139.5 BLU

## VPIDKKSPFYPGLD
[3]
  The normalized value in BLU units: 150.4 BLU

## VPIIFEIPFNPIYK
[2]
  The normalized value in BLU units: 214.9 BLU

## VPLPFGIPPFPMFP
[1]
  The normalized value in BLU units (SPOT analysis, Myo5 SH3): 11610.9 BLU

## VPNRWATPLDPSIL
[1]
  The normalized value in BLU units (SPOT analysis, Myo5 SH3): 125.7 BLU

## VPPNFNAPPNPMAF
[2]
  The normalized value in BLU units: 1568.9 BLU

## VPSAFTAPPVPTKK
[2]
  The normalized value in BLU units: 358.2 BLU

## VQIKRADPHFPHDE
[3]
  The normalized value in BLU units: 132.0 BLU

## VRSKRLFPVRPMAT
[3]
  The normalized value in BLU units: 503.5 BLU

## VSKAKLQPAKPQFT
[3]
  The normalized value in BLU units: 252.3 BLU

## VSQRKKRPISPHLT
[3]
  The normalized value in BLU units: 814.5 BLU

## VTDIKLTPTDPLVG
[4]
  The normalized value in BLU units (SPOT analysis, Myo5 SH3): 851.7 BLU

## VTSVKLHPNLPIVF
[2]
  The normalized value in BLU units: 136.6 BLU

## VVAVKIIPKKPWNA
[4]
  The normalized value in BLU units (SPOT analysis, Myo5 SH3): 114.7 BLU

## VVNEKEVPAEPETQ
[4]
  The normalized value in BLU units (SPOT analysis, Myo5 SH3): 100.0 BLU

## VVPERVKPAPPVSR
[3]
  The normalized value in BLU units: 149.8 BLU

## VWGPKPVPFQPMDV
[3]
  The normalized value in BLU units: 96.9 BLU

## VYRRKCIPFAPHQI
[4]
  The normalized value in BLU units (SPOT analysis, Myo5 SH3): 382.9 BLU

## WEALKSVPIPPRKN
[3]
  The normalized value in BLU units: 379.0 BLU

## WENFKEEPGEPLSR
[4]
  The normalized value in BLU units (SPOT analysis, Myo5 SH3): 96.8 BLU

## WETWLYKPGMPPRP
[2]
  The normalized value in BLU units: 255.2 BLU

## WFDLKGLPRQPEPL
[4]
  The normalized value in BLU units (SPOT analysis, Myo5 SH3): 101.7 BLU

## WFILKLFPHEPIEG
[3]
  The normalized value in BLU units: 1272.7 BLU

## WLDEKRIPSTPIDY
[4]
  The normalized value in BLU units (SPOT analysis, Myo5 SH3): 163.3 BLU

## WLDEKRIPSTPVDY
[3]
  The normalized value in BLU units: 240.0 BLU

## WLGNKYDPENPFND
[4]
  The normalized value in BLU units (SPOT analysis, Myo5 SH3): 88.8 BLU

## WLLPYSLPMHPGRW
[1]
  The normalized value in BLU units (SPOT analysis, Myo5 SH3): 706.0 BLU

## WLSKLVLPPPPVSI
[1]
  The normalized value in BLU units (SPOT analysis, Myo5 SH3): 4130.6 BLU

## WRWARDTPRAPGLH
[4]
  The normalized value in BLU units (SPOT analysis, Myo5 SH3): 2104.5 BLU

## WSQMRMNPTNPDWI
[4]
  The normalized value in BLU units (SPOT analysis, Myo5 SH3): 81.2 BLU

## YASQYSRPDGPILL
[2]
  The normalized value in BLU units: 113.5 BLU

## YAVDKIMPPTPAKK
[3]
  The normalized value in BLU units: 109.8 BLU

## YAVGRIVPDSPTYD
[4]
  The normalized value in BLU units (SPOT analysis, Myo5 SH3): 189.3 BLU

## YCPWKLCPLLPILY
[3]
  The normalized value in BLU units: 176.0 BLU

## YDLTRFLPNHPGGQ
[3]
  The normalized value in BLU units: 80.6 BLU

## YEADYVIPVLPGSH
[2]
  The normalized value in BLU units: 124.6 BLU

## YEGPRGAPGMPEML
[3]
  The normalized value in BLU units: 166.5 BLU

## YEGRFWNPENPYKF
[2]
  The normalized value in BLU units: 162.7 BLU

## YEKALHFPAGPKST
[1]
  The normalized value in BLU units (SPOT analysis, Myo5 SH3): 147.4 BLU

## YENCHSLPLDPQSP
[2]
  The normalized value in BLU units: 121.9 BLU

## YEQTMKSPKYPSTY
[1]
  The normalized value in BLU units (SPOT analysis, Myo5 SH3): 138.4 BLU

## YEVTFDGPNDPLHP
[2]
  The normalized value in BLU units: 110.9 BLU

## YFKELPPPSDPSSI
[2]
  The normalized value in BLU units: 164.8 BLU

## YFKNMSNPKIPATK
[1]
  The normalized value in BLU units (SPOT analysis, Myo5 SH3): 127.8 BLU

## YFVKKIRPGNPLTK
[3]
  The normalized value in BLU units: 508.5 BLU

## YGDNKKNPESPESV
[3]
  The normalized value in BLU units: 147.1 BLU

## YGSEKGSPAGPSAV
[3]
  The normalized value in BLU units: 50.3 BLU

## YILPKTDPRSPYYI
[4]
  The normalized value in BLU units (SPOT analysis, Myo5 SH3): 188.5 BLU

## YKNRKNLPTIPIRL
[4]
  The normalized value in BLU units (SPOT analysis, Myo5 SH3): 960.6 BLU

## YLLELPDPLIPNDV
[1]
  The normalized value in BLU units (SPOT analysis, Myo5 SH3): 162.7 BLU

## YLNNLAEPLIPLSL
[1]
  The normalized value in BLU units (SPOT analysis, Myo5 SH3): 222.0 BLU

## YLNSLSEPLVPLAL
[1]
  The normalized value in BLU units (SPOT analysis, Myo5 SH3): 131.6 BLU

## YLPHMSRPLGPDEV
[1]
  The normalized value in BLU units (SPOT analysis, Myo5 SH3): 172.0 BLU

## YLTEFSRPIPPTPS
[2]
  The normalized value in BLU units: 168.8 BLU

## YPAKLRIPETPVKK
[2]
  The normalized value in BLU units: 219.9 BLU

## YPEKFQKPYNPLAM
[2]
  The normalized value in BLU units: 157.4 BLU

## YPNGRTLPPVPTQV
[3]
  The normalized value in BLU units: 172.4 BLU

## YSTNRGIPARPCKD
[2]
  The normalized value in BLU units: 271.3 BLU

## YSYLRLLPWWPSLA
[4]
  The normalized value in BLU units (SPOT analysis, Myo5 SH3): 187.6 BLU

## YTYSRNEPVIPTKP
[4]
  The normalized value in BLU units (SPOT analysis, Myo5 SH3): 209.5 BLU

## YVKERRPPPPPPLL
[3]
  The normalized value in BLU units: 15869.6 BLU

## YVNAKLDPSLPSQY
[4]
  The normalized value in BLU units (SPOT analysis, Myo5 SH3): 97.1 BLU

## YVNPRNLPSVPNGL
[4]
  The normalized value in BLU units (SPOT analysis, Myo5 SH3): 179.8 BLU

## YVVKKNFPVSPNYT
[3]
  The normalized value in BLU units: 193.9 BLU

## YVYGRQDPKKPFFT
[4]
  The normalized value in BLU units (SPOT analysis, Myo5 SH3): 345.2 BLU

## YWGKKFEPERPFEF
[4]
  The normalized value in BLU units (SPOT analysis, Myo5 SH3): 385.0 BLU

## YWKLFFQPEYPVRM
[2]
  The normalized value in BLU units: 144.2 BLU

## YYYYKHYPNMPPIN
[4]
  The normalized value in BLU units (SPOT analysis, Myo5 SH3): 287.9 BLU
